Laboratory results: ChEMBL document CHEMBL1143799, “Synthesis and primary cytotoxicity evaluation of new imidazo[2,1-b]thiazole derivatives” (2007)

Assays:
Type in all cases: functional
MCF7 = experiment: Cytotoxicity against human MCF7 cells assessed as growth at 100 uM after 48 hrs by SRB protein assay relative to control; conditions: MCF7, 48 h, read-out: Activity
NCI-H460 = experiment: Cytotoxicity against human […] cells assessed as growth at 100 uM after 48 hrs by SRB protein assay relative to control; conditions: NCI-H460, 48 h, read-out: Activity
SF-268 = experiment: Cytotoxicity against human SF268 cells assessed as growth at 100 uM after 48 hrs by SRB protein assay relative to control; conditions: SF-268, 48 h, read-out: Activity

COc1ccc(/C=N/NC(=O)Cc2csc3nc(-c4ccc(Br)cc4)cn23)cc1
growth at 100 µM (MCF7): 46%
growth at 100 µM (NCI-H460): 34%
growth at 100 µM (SF-268): 56%

CN(C)c1ccc(/C=N/NC(=O)Cc2csc3nc(-c4ccc(Br)cc4)cn23)cc1
growth at 100 µM (MCF7): 82%
growth at 100 µM (NCI-H460): 69%
growth at 100 µM (SF-268): 77%

O=C(Cc1csc2nc(-c3ccc(Br)cc3)cn12)N/N=C/c1ccc(Br)cc1
growth at 100 µM (MCF7): 56%
growth at 100 µM (NCI-H460): 75%
growth at 100 µM (SF-268): 107%

O=C(Cc1csc2nc(-c3ccc(Br)cc3)cn12)N/N=C/c1ccc(F)cc1
growth at 100 µM (MCF7): 71%
growth at 100 µM (NCI-H460): 35%
growth at 100 µM (SF-268): 84%
